Tests used:
[1] = In vitro hemolysis on human red blood cells; type: cell-based; conditions: red blood cells (2% final suspension), % Haemolysis
P. berghei ANKA = assay: Four day suppressive test in P. berghei-infected mice; type: in vivo, P. berghei (BALB/c mice)
[2] = Experimental complexation with iron; type: binding; conditions: ligand–iron(III), stoichiometry 1, text

binding constant [2]: about 6300 M^–1
SMILES: CCN(CC)CCCC(C)Nc1ccnc2cc(Cl)ccc12 (stereo not shown) [CQ, chloroquine]
hemolysis at 45 min, 1 mM [1]: 7.4%
parasitemia reduction percentage (P. berghei ANKA; 20 mg kg^–1, day 4): 99.80%
%P, percentage of parasitemia (P. berghei ANKA; 20 mg kg^–1 for 4 days, day 4 post-infection, n = 6): 0.2%

Reference: publication PMC8908514 (ACS Omega, 2022)
